Measurements reported in EP3797781A1, “USE OF EC-7072 AND SYNERGIC COMPOSITIONS THEREOF IN TREATMENT OF CHRONIC LYMPHOCYTIC LEUKEMIA” (priority 2019, dated 2021).

Test system: T cells and NK cells
Test: Intracellular staining of IFN-γ and perforin upon PMA/ionomycin stimulation
Type: cell-based, human
Settings: 200 nM, 24 hours, PBMCs from patients with CLL (n = 4)
Description: PBMCs from patients with CLL were treated with 200 nM EC-7072 or DMSO for 24 hours and stimulated with PMA (50 ng/mL) and ionomycin (1 µg/mL) for 5 hours in the presence of GolgiPlug protein transport inhibitor (Beckton Dickinson). T cells and NK cells were then analyzed for intracellular levels of IFN-γ and perforin by flow cytometry.
The effect of EC-7072 toward healthy immune subsets, T lymphocytes and natural killer (NK) cells, which are chronically exposed to leukemia cells in the peripheral blood of patients with CLL was assessed by: • (i) incubating PBMCs isolated from patients with CLL (n = 10) following treatment with increasing concentrations of EC-7072 (0 - 400 nM) for 24 hours. Numbers of T cells (CD3^+CD56^-) (Figure 2A) and NK cells (CD3^-CD56^+) (Figure 2B) were evaluated by flow cytometry and normalized to their respective control (DMSO) condition for each individual patient to obtain percentage of relative number of T cells and NK cells, respectively; • (ii) incubating PBMCs isolated from patients with CLL (n = 6 - 10) following treatment with increasing concentrations of EC-7072 (0 - 400 nM) for 24 hours. […]

Compound: CO[C@@H]([C@@H]1Cc2cc3cc(O[C@H]4C[C@@H](O[C@H]5C[C@@H](O)[C@H](O)[C@@H](C)O5)[C@H](O)[C@@H](C)O4)c(C)c(O)c3c(O)c2C(=O)[C@H]1O[C@H]1C[C@@H](O[C@H]2C[C@@H](O[C@H]3C[C@](C)(O)[C@H](O)[C@@H](C)O3)[C@@H](O)[C@@H](C)O2)[C@H](O)[C@@H](C)O1)[C@@H](O)C(C)=O [EC-7072, mithramycin SK]
- production of interferon (IFN)-γ and perforin by T cells and NK cells: not significantly altered
